Data published in patent US12180226B2, “Spirotricycle RIPK1 inhibitors and methods of uses thereof” (Merck Sharp & Dohme LLC, priority 2021, dated 2024).
Where a name gives a salt, the structure may show the parent alone.

target: RIPK1 (recombinant GST-RIPK1 kinase domain, residues 1-327) (Homo sapiens (Human), UniProt Q13546); assay: RIPK1-ADP-Glo Enzymatic Assay; format: biochemical; conditions: ADP-Glo; 25 nM GST-RIPK1, 300 μM ATP; assay lower limit ~25 nM; read-out: RIPK1 V0 Ec50
Summary of the method: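 Compounds titrated 10-pt 1:3 from 100000 nM top (1% DMSO); 30 min preinc w/ 25 nM Sf21-expressed enzyme, RT; start w/ ATP (300 μM final) + dephos-MBP (3 μM); 150 min; ADP-Glo lumi; 4-param fit → EC50.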

RIPK1 (recombinant GST-RIPK1 kinase domain, residues 1-327), sequence (Q13546 1-327): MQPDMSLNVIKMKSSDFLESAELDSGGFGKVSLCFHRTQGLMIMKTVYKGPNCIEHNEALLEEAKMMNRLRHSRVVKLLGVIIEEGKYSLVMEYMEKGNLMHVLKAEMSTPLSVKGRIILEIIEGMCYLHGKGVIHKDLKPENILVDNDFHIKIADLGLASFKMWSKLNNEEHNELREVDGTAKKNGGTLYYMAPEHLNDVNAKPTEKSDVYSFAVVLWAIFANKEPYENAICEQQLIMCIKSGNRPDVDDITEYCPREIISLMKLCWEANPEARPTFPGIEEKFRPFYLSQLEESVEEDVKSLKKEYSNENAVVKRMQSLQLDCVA

Row | SMILES | EC50 [nM]
1 | N#Cc1cc(N2CCC3(O[C@@H]4CC[C@@H](c5ccccc5)N4C3=O)C(F)C2)ncn1 (single isomer, unassigned) [Example 4.94, 6-((3[R or S],4[S or R], 5′S,7a′R)-3-fluoro-3′-oxo-5′-phenyltetrahydro-3′H-spiro[piperidine-4,2′-pyrrolo[2,1-b]oxazol]-1-yl)pyrimidine-4-carbonitrile] | 154
2 | O=C(c1ccnc2ncnn12)N1CCC2(CC1)O[C@@H]1CC[C@@H](c3cc(F)cc(F)c3)N1C2=O [Example 6.76, (5′S,7a′R)-5′-(3,5-difluorophenyl)-1-([1,2,4]triazolo[1,5-a]pyrimidine-7-car-bonyl)tetrahydro-3′H-spiro[piperidine-4,2′-pyrrolo[2,1-b] [1,3]oxazol]-3′-one] | 182
3 | O=C1N2[C@@H](CC[C@H]2c2ccccc2)OC12CCN(c1cc(CF)ncn1)CC2 [Example 4.203, (5′S,7a′R)-1-[6-(fluoromethyl)pyrimidin-4-yl]-5′-phenyltetrahydro-3′H-spiro[piperidine-4,2′-pyrrolo[2,1-b] [1,3]oxazol]-3′-one] | 48
4 | N#Cc1cc(N2CCC3(CC2)O[C@@H]2CC[C@@H](c4ccccc4)N2C3=O)ccn1 [Example 4.31, 4-[(5′S,7a′R)-3′-oxo-5′-phenyltetrahydro-1H,3′H-spiro[piperidine-4,2′-pyrrolo[2,1-b] [1,3]oxazol]-1-yl]pyridine-2-carbonitrile] | < 25
5 | N#Cc1ccc(N2CCC3(O[C@@H]4CC[C@@H](c5ccccc5)N4C3=O)C(F)C2)n2ncnc12 (stereo partly drawn) [Example 4.257, 5-[(5′S,7a′R)-3-fluoro-3′-oxo-5′-phenyltetrahydro-1H,3′H-spiro[piperidine-4,2′-pyrrolo[2,1-b] [1,3]oxazol]-1-yl][1,2,4]triazolo[1,5-a] pyridine-8-carbonitrile] | < 25
6 | Cc1ccc(C(=O)N2CCC3(CC2)O[C@@H]2CC[C@@H](c4cc(F)cc(F)c4)N2C3=O)cn1 [Example 6.69, (5′S,7a′R)-5′-(3,5-difluorophenyl)-1-(6-methylpyridine-3-carbonyl)tetrahydro-3′H-spiro[piperidine-4,2′-pyrrolo[2,1-b] [1,3]oxazol]-3′-one] | 46.8
7 | N#Cc1ccc(N2CCC3(CC2)O[C@@H]2CC[C@@H](c4cc(F)cc(F)c4)N2C3=O)nn1 [Example 4.100, 6-((5′S,7a′R)-5′-(3,5-difluorophenyl)-3′-oxotetrahydro-3′H-spiro[piperidine-4,2′-pyrrolo[2,1-b]oxazol]-1-yl)pyridazine-3-carbonitrile] | 240
8 | Cc1cnc([C@@H]2CC[C@H]3OC4(CCN(C(=O)c5ccccc5)CC4)C(=O)N32)cn1 [Example 6.143, (5′S,7a′R)-1-(benzene-carbonyl)-5′-(5-meth-ylpyrazin-2-yl)tetra-hydro-3′H-spiro [piperidine-4,2′-pyrrolo[2,1-b][1,3]oxazol]-3′-one] | 56.8
9 | O=C(c1ccccc1)N1CC2(C1)O[C@@H]1CC[C@@H](c3ccccc3F)N1C2=O [Example 1.19, (5′S,7a′R)-1-benzoyl-5′-(2-fluorophenyl)tetrahydro-3′H-spiro[azetidine-3,2′-pyrrolo[2,1-b]oxazol]-3′-one] | 82.9
10 | O=C(c1ccccc1F)N1CCC2(CC1)O[C@@H]1CC[C@@H](c3cc(F)cc(F)c3)N1C2=O [Example 1.9, (5′S,7a′R)-5′-(3,5-difluorophenyl)-1-(2-fluorobenzene-1-carbonyl)tetrahydro-3′H-spiro[piperidine-4,2′-pyrrolo[2,1-b] [1,3]oxazol]-3′-one] | < 25
11 | COc1ccnc(N2CCC3(CC2)O[C@@H]2CC[C@@H](c4cc(F)cc(F)c4)N2C3=O)n1 [Example 4.10, (5′S,7a′R)-5′-(3,5-difluorophenyl)-1-(4-methoxypyrimidin-2-yl)tetrahydro-3′H-spiro[piperidine-4,2′-pyrrolo[2,1-b] [1,3]oxazol]-3′-one] | 35.5
12 | Cn1cc(C(=O)N2CCC3(CC2)O[C@@H]2CC[C@@H](c4cc(F)cc(F)c4)N2C3=O)cn1 [Example 5.53, (5′S,7a′R)-5′-(3,5-difluoro-phenyl)-1-(1-methyl-1H-pyrazole-4-carbonyl)tetra-hydro-3′H-spiro[piperidine-4,2′-pyrrolo[2,1-b]oxazol]-3′-one] | 509
13 | O=C1N2[C@H](OC13CCN(c1ccnc4ccnn14)CC3)[C@@H](O)C[C@H]2c1ccccc1 [Example 4.251, (5′S,7′S,7a′R)-7′-hydroxy-5′-phenyl-1-(pyrazolo [1,5-a]pyrimidin-7-yl)tetrahydro-3′H-spiro[piperidine-4,2′-pyrrolo[2,1-b] [1,3]oxazol]-3′-one] | < 25
14 | O=C(c1ccccc1)N1CCC2(CC1)O[C@@H]1CC[C@@H](c3ccc(F)cn3)N1C2=O [Example 17.6, (5′S,7a′R)-1-benzoyl-5′-(5-fluoropyridin-2-yl)tetrahydro-3′H-spiro[piperidine-4,2′-pyrrolo[2,1-b]oxazol]-40′-one, TFA salt] | 94.4
15 | CCc1ccnc(C(=O)N2CCC3(CC2)O[C@@H]2CC[C@@H](c4cc(F)cc(F)c4)N2C3=O)c1 [Example 6.79, (5′S,7a′R)-5′-(3,5-difluorophenyl)-1-(4-ethylpyridine-2-carbonyl)tetrahydro-3′H-spiro[piperidine-4,2′-pyrrolo[2,1-b][1,3]oxazol]-3′-one] | 38.3
16 | O=C1N2[C@@H](CC[C@H]2c2ccccc2)OC12CCN(c1ncnc3c1CCO3)CC2 [Example 4.217, (5′S,7a′R)-1-(5,6-dihydrofuro[2,3-d]pyrimidin-4-yl)-5′-phenyltetrahydro-3′H-spiro[piperidine-4,2′-pyrrolo[2,1-b] [1,3]oxazol]-3′-one] | 25.8
17 | O=C(c1cnn2c1CSCC2)N1CCC2(CC1)O[C@@H]1CC[C@@H](c3cc(F)cc(F)c3)N1C2=O [Example 6.39, (5′S,7a′R)-5′-(3,5-difluorophenyl)-1-(6,7-dihydro-4H-pyrazolo-[5,1-c][1,4]thiazine-3-carbonyl)tetrahydro-3′H-spiro[piperidine-4,2′-pyrrolo[2,1-b] [1,3]oxazol]-3′-one] | 738
18 | COc1cccc([C@@H]2CC[C@H]3OC4(CCN(c5cc(C#N)ncn5)CC4)C(=O)N32)c1 [Example 20.3, 6-[(5′S,7a′R)-5′-(3-methoxyphenyl)-3′-oxotetrahydro-1H,3′H-spiro[piperidine-4,2′-pyrrolo[2,1-b][1,3]oxazol]-1-yl]pyrimidine-4-carbonitrile] | 394
19 | COc1cccnc1C(=O)N1CCC2(CC1)O[C@@H]1CC[C@@H](c3cc(F)cc(F)c3)N1C2=O [Example 6.81, (5′S,7a′R)-5′-(3,5-difluorophenyl)-1-(3-methoxypyridine-2-carbonyl)tetrahydro-3′H-spiro[piperidine-4,2′-pyrrolo[2,1-b] [1,3]oxazol]-3′-one] | 935
20 | COc1ccc(N2CCC3(CC2)O[C@@H]2CC[C@@H](c4cc(F)cc(F)c4)N2C3=O)n2nccc12 [Example 19.1, (5′S,7a′R)-5′-(3,5-Difluorophenyl)-1-(4-methoxypyrazolo[1,5-a]pyridin-7-yl)tetrahydro-3′H-spiro[piperidine-4,2′-pyrrolo[2,1-b]oxazol]-3′-one, TFA] | < 25
21 | O=C1N2C(CCC2c2c(F)cccc2F)OC12CCN(c1ccnc3ccnn13)CC2 (stereo not shown) [Example 20.8, 5′-(2,6-difluorophenyl)-1-(pyrazolo[1,5-a]pyrimidin-7-yl)tetrahydro-3′H-spiro[piperidine-4,2′-pyrrolo[2,1-b][1,3]oxazol]-3′-one] | < 25
22 | O=C1N2[C@@H](CC[C@H]2c2ccccc2F)OC12CCN(c1ccnc3c(F)cnn13)CC2 [Example 4.102, (5′S,7a′R)-5′-(2-fluorophenyl)-1-(3-fluoropyrazolo[1,5-a]pyrimidin-7-yl)tetrahydro-3′H-spiro[piperidine-4,2′-pyrrolo[2,1-b]oxazol]-3′-one] | < 25
23 | C#Cc1cccc(C(=O)N2CCC3(CC2)O[C@@H]2CC[C@@H](c4cc(F)cc(F)c4)N2C3=O)c1 [Example 5.25, (5′S,7a′R)-5′-(3,5-difluoro-phenyl)-1-(3-ethynyl-benzoyl)tetrahydro-3′H-spiro[piperidine-4,2′-pyrrolo[2,1-b]oxazol]-3′-one] | < 25
24 | O=C(c1cc(F)ccc1F)N1CCC2(O[C@@H]3CC[C@@H](c4ccccc4)N3C2=O)C(F)C1 (stereo partly drawn) [Example 6.111, (5′S,7a′R)-1-(2,5-difluorobenzene-1-carbonyl)-3-fluoro-5′-phenyltetrahydro-3′H-spiro[piperidine-4,2′-pyrrolo[2,1-b][1,3]-oxazol]-3′-one] | < 25
25 | Nc1nnc(N2CCC3(CC2)O[C@@H]2CC[C@@H](c4ccccc4)N2C3=O)s1 [Example 11.23, (5′S,7a′R)-1-(5-amino-1,3,4-thiadiazol-2-yl)-5′-phenyltetrahydro-3′H-spiro[piperidine-4,2′-pyrrolo[2,1-b][1,3]oxazol]-3′-one] | 306
26 | O=C1N2[C@@H](CC[C@H]2c2ccccc2)OC12CCN(c1cc(-c3cnn(C(F)F)c3)ncn1)CC2 [Example 10.2, (5′S,7a′R)-1-{6-[1-(difluoromethyl)-1H-pyrazol-4-yl]pyrimidin-4-yl}-5′-phenyltetrahydro-3′H-spiro[piperidine-4,2′-pyrrolo[2,1-b][1,3]oxazol]-3′-one] | < 25
27 | O=C1N2[C@@H](CC[C@H]2c2ccccc2F)OC12CCN(c1ncnc3ccnn13)CC2 [Example 4.252, (5′S,7a′R)-5′-(2-fluorophenyl)-1-(pyrazolo[1,5-a] [1,3,5]triazin-4-yl)tetrahydro-3′H-spiro[piperidine-4,2′-pyrrolo[2,1-b] [1,3]oxazol]-3′-one] | < 25
28 | N#Cc1ccc(N2CC3(C2)O[C@@H]2CC[C@@H](c4ccccc4)N2C3=O)n2ncnc12 [Example 13.23, 5-((5′S,′7a′R)-3′-oxo-5′-phenyltetrahydro-3′H-spiro[azetidine-3,2′-pyrrolo[2,1-b]oxazol]-1-yl)-[1,2,4]triazolo[1,5-a]pyridine-8-carbonitrile, TFA salt] | 54.3
